# Where two headings read alike, the source gives them in different places.
# How the values were obtained:
# S. aureus = assay: MIC (microbroth dilution); assay type: cell-based, Staphylococcus aureus
# Outline: (§1)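 Broth microdilution MICs, defined as lowest compound level without visible growth (OD600 read), on bacteria grown overnight to stationary phase then diluted. Twofold compound dilutions; some wells also received PMBN, final 30 μg/mL, to permeabilize the outer membrane.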
# Pseudomonas aeruginosa = assay: MIC (microbroth dilution); assay type: cell-based
# Outline: (§2)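 Microbroth dilution in tryptic soy broth; Streptococcus spp. in cation-adjusted Mueller Hinton broth with 2.5% lysed horse blood, inocula from overnight stationary-phase cultures. MIC is lowest concentration without visible growth, OD600 read. Parallel MICs run with 30 μg/mL polymyxin B nonapeptide (final) as outer-membrane permeabilizer.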
# S. dysgalactiae = assay: MIC (microbroth dilution); assay type: cell-based; details: for MIC: Streptococcus dysgalactiae
# Outline: as §2
# K. pneumoniae = assay: MIC (microbroth dilution); assay type: cell-based, Klebsiella pneumoniae; details: Klebsiella pneumoniae, read-out: MIC
# Outline: as §1
# E. coli = assay: MIC (microbroth dilution); assay type: cell-based; details: Escherichia coli
# Outline: as §1
# AR (h) = assay: SafetyScreen44; set-up: species or system human; details: agonist radioligand, specific binding, 1.0E-05 M
# Experimental: Off-target pharmacology was evaluated using the Eurofins SafetyScreen44 in vitro panel. […] Binding assays were performed using radioligand displacement, and enzyme or uptake assays measured inhibition of control activity using validated detection methods (scintillation counting, fluorimetry or photometry). Responses were expressed as percent inhibition of control binding or activity. Based on Eurofins interpretation guidelines, effects ≥50% were considered significant, effects between 25% and 50% weak to moderate, and effects <25% were not considered biologically relevant.
# CYP2C8 = CYP2C8 (Homo sapiens, UniProt P10632); assay: CYP inhibition; details: HLM, amodiaquine substrate, 10 μM
# Experimental: (§3) Cytochrome P450 inhibition was assessed in vitro using human recombinant enzymes in microsomal preparations. […] Enzyme activity was quantified by monitoring formation of substrate-specific metabolites, and percent inhibition was calculated relative to vehicle control.
# CYP2C9 = CYP2C9 (Homo sapiens, UniProt P11712); assay: CYP inhibition; details: HLM, diclofenac substrate, 10 μM
# CYP2C9, sequence (P11712 whole entry): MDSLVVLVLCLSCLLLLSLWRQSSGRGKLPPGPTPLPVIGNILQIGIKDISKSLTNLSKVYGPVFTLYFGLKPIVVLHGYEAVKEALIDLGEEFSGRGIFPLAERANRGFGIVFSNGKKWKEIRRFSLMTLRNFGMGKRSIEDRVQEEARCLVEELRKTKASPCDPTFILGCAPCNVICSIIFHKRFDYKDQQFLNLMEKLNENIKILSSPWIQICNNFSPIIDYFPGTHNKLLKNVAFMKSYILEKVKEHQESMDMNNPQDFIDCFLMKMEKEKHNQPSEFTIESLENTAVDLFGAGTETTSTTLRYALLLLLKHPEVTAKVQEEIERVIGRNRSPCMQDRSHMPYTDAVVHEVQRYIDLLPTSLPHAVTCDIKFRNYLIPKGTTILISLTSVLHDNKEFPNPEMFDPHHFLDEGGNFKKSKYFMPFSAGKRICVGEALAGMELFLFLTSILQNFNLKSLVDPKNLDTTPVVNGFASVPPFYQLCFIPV
# Experimental: as §3
# CYP2C8, sequence (P10632 whole entry): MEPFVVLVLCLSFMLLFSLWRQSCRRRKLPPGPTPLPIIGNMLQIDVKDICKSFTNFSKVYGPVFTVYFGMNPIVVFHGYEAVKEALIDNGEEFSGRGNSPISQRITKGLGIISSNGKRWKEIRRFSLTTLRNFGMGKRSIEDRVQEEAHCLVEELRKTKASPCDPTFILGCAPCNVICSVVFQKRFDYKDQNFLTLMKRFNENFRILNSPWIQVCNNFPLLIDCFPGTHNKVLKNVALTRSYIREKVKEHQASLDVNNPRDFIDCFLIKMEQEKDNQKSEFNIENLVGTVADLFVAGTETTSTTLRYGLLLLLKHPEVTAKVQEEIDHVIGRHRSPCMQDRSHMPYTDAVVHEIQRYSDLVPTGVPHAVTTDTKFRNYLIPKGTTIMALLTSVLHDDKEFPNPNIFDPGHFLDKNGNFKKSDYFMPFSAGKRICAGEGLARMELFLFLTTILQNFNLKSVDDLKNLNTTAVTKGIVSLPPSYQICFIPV
compound,measurement,setting,value
"C[C@H]1COc2c(N3CC[C@@H](Nc4ncccn4)C3)c(F)cc3c(=O)c(C(=O)O)cn1c23 [Compound 46, (S)-9-Fluoro-3-methyl-7-oxo-10-((R)-3-(pyrimidin-2-ylamino)pyrrolidin-1-yl)-2,3-dihydro-7H-[1,4]oxazino[2,3,4-ij]quinoline-6-carboxylic acid]",MIC,S. aureus; NCTC 13616,0.5 to 1 µg/mL
same,"fold difference in MIC, SA-1199B vs SA-1199",S. aureus; NorA-overexpressing vs WT,2 fold
same,MIC,S. aureus; SA-1199B (NorA-overexpressing),0.03 µg/mL
same,MIC,"S. aureus; Staphylococcus aureus, 1199, + 4% albumin, read-out: MIC",0.03 to 0.06 µg/mL
same,MIC,"S. aureus; Staphylococcus aureus, 1199b, + 4% albumin, read-out: MIC",0.06 µg/mL
same,MIC,"S. aureus; Staphylococcus aureus, ATCC9144, ATCC 9144, + 4% albumin, read-out: MIC",0.03 to 0.06 µg/mL
same,MIC,"S. aureus; Staphylococcus aureus, ATCC9144, ATCC 9144, read-out: MIC",≤ 0.03 µg/mL
same,MIC,"S. aureus; Staphylococcus aureus, NCTC13277, NCTC 13277, + 4% albumin, read-out: MIC",1 to 2 µg/mL
same,MIC,"S. aureus; Staphylococcus aureus, NCTC13277, NCTC 13277, read-out: MIC",1 µg/mL
same,MIC,"S. aureus; Staphylococcus aureus, NCTC13616, NCTC 13616, + 4% albumin, read-out: MIC",1 to 2 µg/mL
same,MIC,"S. aureus; Staphylococcus aureus, NCTC13616, NCTC 13616, read-out: MIC",0.5 µg/mL
same,MIC,"S. aureus; Staphylococcus aureus, SA-1199B (NorA-overexpressing)",0.016 µg/mL
same,fold potentiation compared to levofloxacin,S. aureus; fluoroquinolone-resistant NCTC 13616 and NCTC 13277,16–32 fold
same,MIC,"Pseudomonas aeruginosa; CAS4, + PMBN",0.06 µg/mL
same,MIC,"Pseudomonas aeruginosa; CFL 004 CRCN, + PMBN",8 µg/mL
same,MIC,"Pseudomonas aeruginosa; GH12, + PMBN",0.5 µg/mL
same,MIC,"Pseudomonas aeruginosa; NCTC 10662, + PMBN",≤ 0.03 µg/mL
same,MIC,"Pseudomonas aeruginosa; NCTC 12903, + PMBN",≤ 0.03 µg/mL
same,MIC,"Pseudomonas aeruginosa; NCTC 13359, + PMBN",0.06 µg/mL
same,MIC,"Pseudomonas aeruginosa; PAO1 ΔmexB, + PMBN",≤ 0.03 µg/mL
same,MIC,"Pseudomonas aeruginosa; Pseudomonas aeruginosa, CAS4, read-out: MIC",8 µg/mL
same,MIC,"Pseudomonas aeruginosa; Pseudomonas aeruginosa, GH12, read-out: MIC",> 32 µg/mL
same,MIC,"Pseudomonas aeruginosa; Pseudomonas aeruginosa, GH100, read-out: MIC",1 to 4 µg/mL
same,MIC,"Pseudomonas aeruginosa; Pseudomonas aeruginosa, NCTC10662, NCTC 10662, read-out: MIC",8 µg/mL
same,MIC,"Pseudomonas aeruginosa; Pseudomonas aeruginosa, NCTC12903, NCTC 12903, read-out: MIC",8 µg/mL
same,MIC,"Pseudomonas aeruginosa; Pseudomonas aeruginosa, NCTC13359, NCTC 13359, read-out: MIC",4 to 32 µg/mL
same,MIC,"Pseudomonas aeruginosa; Pseudomonas aeruginosa, PAO1, PAO1, read-out: MIC",4 to 8 µg/mL
same,MIC,"Pseudomonas aeruginosa; Pseudomonas aeruginosa, CFL 004 CRCN, read-out: MIC",> 32 µg/mL
same,MIC50,"Pseudomonas aeruginosa; Pseudomonas aeruginosa, in the presence of PMBN, n = 7 strains",0.06 µg/mL
same,MIC,"S. dysgalactiae; 10238, read-out: MIC",0.06 to 0.25 µg/mL
same,MIC,"S. dysgalactiae; 13759, read-out: MIC",0.06 µg/mL
same,MIC,"S. dysgalactiae; 13762, read-out: MIC",0.06 µg/mL
same,MIC,S. dysgalactiae; 81251,0.125 µg/mL
same,MIC,S. dysgalactiae; 81553,0.125 µg/mL
same,MIC,S. dysgalactiae; 84143,0.06 to 0.125 µg/mL
same,MIC,S. dysgalactiae; 84557,0.03 to 0.125 µg/mL
same,MIC,S. dysgalactiae; 84574,0.06 to 0.125 µg/mL
same,MIC range,S. dysgalactiae; n = 8,0.0625 to 0.125 µg/mL
same,MIC,K. pneumoniae; M6,1 to 2 µg/mL
same,MIC,"K. pneumoniae; NCTC13368, NCTC 13368",8 µg/mL
same,MIC,K. pneumoniae; TW3,1 µg/mL
same,MIC,E. coli; 319238/UR,16 µg/mL
same,MIC,E. coli; LEC006,0.125 µg/mL
same,MIC,E. coli; LEC007,0.125 µg/mL
same,MIC,E. coli; LEC077,4 µg/mL
same,MIC,E. coli; LEC081,2 µg/mL
same,MIC,"E. coli; NCTC10418, NCTC 10418",≤ 0.06 µg/mL
same,MIC,"E. coli; NCTC11954, NCTC 11954",0.125 µg/mL
same,MIC,"E. coli; NCTC12241, NCTC 12241",0.06 µg/mL
same,MIC,"E. coli; NCTC12923, NCTC 12923",0.25 to 0.5 µg/mL
same,% Inhibition,AR (h),4.241%
same,CYP2C8 inhibition,CYP2C8,3.1%
same,CYP2C9 inhibition,CYP2C9,12.8%

# Reference: article PMC13266999, “Designing Antibiotics with Inherent Resistance to Efflux as a Strategy to Revive Discovery against Multidrug-Resistant Pathogens” (Journal of Medicinal Chemistry, 2026)
